# According to patent publication US11833146B2, “Dementia therapeutic agent combining pyrazoloquinoline derivative and donepezil” (Eisai R&D Management Co., Ltd., priority 2017, dated 2023):
# Test system: rats with scopolamine-induced cognitive impairment
# Experiment: Novel object recognition test using rats with scopolamine-induced cognitive impairment
# Type: in vivo, rat (male Long Evans)
# Details: for effect on the percentage of exploration of the novel object (in words): vs disease control group, p<0.05; for percentage of exploration of the novel object in T2: scopolamine 0.7 mg/kg s.c., mean±standard error
# Source text: [Test Example 1] Novel Object Recognition Test Using Rats with Scopolamine-Induced Cognitive Impairment
# Acetylcholine nervous system disorder has been reported in Alzheimer's disease and Lewy body dementia (Whitehouse et al., Science, 1982, vol. 215, p. 1237, Shimada et al., Neurology, vol. 73, p. 273, 2009, Tiraboschi et al., Neurology 54 (2000) 407-411, Peny et. al., NeuroReport, vol. 5, pp. 747-749 (1994)), and scopolamine-administered animals are utilizable as an animal model for Alzheimer's disease and Lewy body dementia.
# Scopolamine is a muscarine receptor inhibitor which blocks acetylcholine nervous system transmission.
# 6-week-old male Long Evans rats (Institute for Animal Reproduction) were subjected to the test. A habituation process to the experimental procedure was carried out once per day for 2 days prior to the test. In the habituation process, a vehicle was administered to the rats, and then the rats were placed in an empty test apparatus (40 cm×30 cm×45 cm height) and allowed to explore for 3 minutes, and after then placed in a waiting chamber (13 cm×30 cm×45 cm height) for about 1 minute, they were returned to the empty test apparatus again and left for 5 minutes.
# An acquisition trial (T1) was carried out on the day of the test. Compound (I) was orally administered 2 hours before T1. Donepezil hydrochloride was orally administered 1 hour before T1. Scopolamine (Wako Pure Chemical Industries, Ltd.) was subcutaneously administered 30 minutes before T1 at a dose of 0.7 mg/kg. In T1, the rats were habituated to the empty test apparatus for 3 minutes and then placed in the waiting chamber. After setting two identical objects in the test apparatus, the rats were returned into the test apparatus again and allowed to freely explore the two identical objects for 5 minutes. The rats were then returned into their rearing cages. After 2 hours, a retention trial (T2) was carried out. The rats were placed in the empty test apparatus for 3 minutes for habituation, and were then transferred into the waiting chamber. After setting an object used in T1 (“familiar” object) and an object not used in T1 (“novel” object) in the test apparatus, the rats were again returned into the test apparatus and allowed to freely explore these objects for 3 minutes. The objects were wiped with a wet wipe impregnated with ethanol after each experiment so as to leave no trace of odor. The behaviors of the rats during T1 and T2 were recorded by a digital video camera, and the total exploration time for each object was manually measured using a stopwatch. Exploratory behavior was defined as the behavior in which the rat brings its nose within 2 cm of the object and directs its nose toward the object.
# In the novel object recognition test, the percentage of exploration of the novel object in T2 is considered to be an index for amnesia, reflecting discrimination between the familiar object and the novel object. The percentage of exploration of the novel object was calculated by the following formula. The percentage of exploration of the novel object (%)=N/(N+F)×100 F: time spent in exploring the familiar object N: time spent in exploring the novel object
# Rats whose total time spent in exploring the objects during T1 or T2 was 10 seconds or less or rats whose percentage of the time spent in exploring either of the objects during T1 was not less than 70% or not more than 30% of the total exploration time were excluded from the data analysis.
# The results were expressed as mean±standard error. The difference between the normal control group untreated with scopolamine and the disease control group treated with scopolamine was analyzed by an unpaired t-test (significant difference: *). The difference between the disease control group and the single drug-treated group was analyzed by Dunnett-type multiple comparison test (significant difference: #).
SMILES,effect on the percentage of exploration of the novel object (in words) (0.03 mg/kg),effect on the percentage of exploration of the novel object (in words) (0.3 mg/kg),"percentage of exploration of the novel object in T2 (Table 3, Donepezil 0.03 mg/kg oral 1 h before T1)","percentage of exploration of the novel object in T2 (Table 4, Donepezil 0.1 mg/kg oral 1 h before T1)","percentage of exploration of the novel object in T2 (Table 4, Donepezil 0.3 mg/kg oral 1 h before T1, # significant vs disease control)","percentage of exploration of the novel object in T2 (Table 5, Donepezil 0.03 mg/kg alone, oral)",effect on the percentage of exploration of the novel object (in words) (1 mg/kg),effect on the percentage of exploration of the novel object (in words) (3.3 mg/kg),"percentage of exploration of the novel object in T2 (Table 5, Compound (I) 1 mg/kg alone, oral)"
"COc1cc2c(cc1OC)C(=O)C(CC1CCN(Cc3ccccc3)CC1)C2 (stereo not drawn) [Donepezil, donepezil]",did not exhibit a significant effect,significant ameliorative effect,62.7 ± 3.6%,66.2 ± 4.0%,70.4 ± 4.8# %,57.8 ± 4.0%,–,–,–
"COc1ncc(C)c(-c2ccc3c(c2)[nH]c(=O)c2cnn([C@H]4CCOC4)c23)c1C [Compound (I), (S)-7-(2-methoxy-3,5-dimethylpyridin-4-yl)-1-(tetrahydrofuran-3-yl)-1H-pyrazolo[4,3-c]quinoline-4(5H)-one]",–,–,–,–,–,–,did not exhibit a significant effect,significant ameliorative effect,64.9 ± 2.2%
